# “Also recorded” adds a separate entry of the source. Like-named read-outs stand apart in the source and are kept apart here.
# What was measured:
# rat acute glaucoma model = details: cited from earlier work
# [1] = system: APP/PS1 transgenic (tg) mouse model of AD; details: cited from earlier work
# [2] = Phase 1 single and multiple ascending dose safety, tolerance, pharmacokinetic studies; details: pharmacokinetic analyses of Phase I studies
# Procedure: This publication reported the results of a Phase 2a Clinical Study which was a double-blind, placebo-controlled, multi-center study of 14 early AD patients and 54 early PD patients. AD patients were given either 80 mg buntanetap or placebo QD. PD patients were given 5 mg, 10 mg, 20 mg, 40 mg, 80 mg buntanetap or placebo QD. The primary endpoint was safety and tolerability; secondary endpoint is pharmacokinetics of buntanetap in plasma.
# The double phase 2 clinical trial recruited 14 AD (Alzheimer's disease) and 54 patients and treated them over 25 with a once daily dose of buntanetap. The 14 AD patients receive either 80 mg QD or placebo, whereas the 54 PD (Parkinson's disease) patients received 5, 10 20, 40 80 mg QD or placebo.
# [3] = system: CSF levels of sAPPα, sAPPβ, Aβ42, Tau (total and phosphorylated), alpha-synuclein and inflammatory markers; details: cited from earlier work
# APP [4] = assay: APP in vitro, Western blot in SH-SY-5Y cells (FIG. 1); type: cell-based; details: SH-SY-5Y human neuroblastoma cells; 0, 0.1, 1, 5 and 10 μM
# [5] = system: CSF levels of sAPPα, sAPPβ, Aβ42, Tau (total and phosphorylated), alpha-synuclein and inflammatory markers; assay: Study of MCI subjects: CSF biomarkers before and after 10 days of buntanetap; details: before and after 10 days of administration
# From the text: FIG. 3 is a study of subjects with mild cognitive impairment (MCI) for early proof of mechanism (POM) using a well-tolerated dose of buntanetap. Before and after 10 days of buntanetap administration to the MCI subjects, plasma, and cerebrospinal fluid (CSF) samples were obtained for analysis of levels of secreted(s) APPα and APPβ, and Aβ42, Tau (total and phosphorylated), and inflammatory markers.
# [6] = system: human SNCAA53T tg mouse model of PD; details: cited from earlier work
# APP and its fragments [7] = assay: APP in vivo in APP/PS1 transgenic AD mice, hippocampus (FIG. 2A); parameters: species or system mouse
# From the text: FIG. 2A is a Table, collection of graphs and a Western blot showing that buntanetap treatment of APP/PS1 transgenic AD mice reduced APP and its fragments in hippocampus.
# FIG. 2A, APP in vivo. […] GAPDH and Synaptophysin were loading controls. FIG. 2 also includes a collection of graphs showing relative density of APP plotted against control and time after buntanetap treatment; relative density of CTFβ plotted against control and time after buntanetap treatment; relative density of CTFα plotted against control and time after buntanetap treatment; Aβ42 levels in brain tissue plotted against control and time after buntanetap treatment; and Aβ40 levels in brain tissue plotted against control and time after buntanetap treatment. Finally, FIG. 2 also includes a Western blot showing levels of APP, NSB, CTFβ, and CTFα after buntanetap treatment over time (minutes).
# [8] = system: Ts65dn mouse model of Down Syndrome (DS); details: cited from earlier work
# αSYN [9] = details: transgenic Parkinson's animals; cited from earlier work
# [10] = system: fully differentiated Down syndrome nerve cells; details: cited from earlier work
# APP [11] = details: neuroblastoma cells; cited from earlier work
# [12] = cited from earlier work
# tau [13] = details: Human tau mice; unpublished observation; cited from earlier work
# Huntingtin Protein = details: through Translational Suppression; cited from earlier work
# APP and its fragments [14] = details: APP/PS1 transgenic mice; cited from earlier work
# [15] = system: patients with mild to moderate AD; assay: Phase II/III trial in mild to moderate AD, 12 weeks (NCT05686044); type: in vivo, human
# Procedure: A randomized, double-blind, placebo-controlled Phase II/III study trial investigating the efficacy, safety, and tolerability of buntanetap in patients with mild to moderate AD was conducted. This was a dose-ranging study where patients received either one of three doses of buntanetap (7.5 mg, 15 mg, or 30 mg) or placebo on top of their standard of care for 12 weeks. In this study, over 700 patients were screened, a total of 353 patients were enrolled, and 325 patients completed the study across 54 sites in the US. The study included mild to moderate AD patients whose Mini Mental State Examination (MMSE) scores at baseline ranged from 14 to 24. (www.clinicaltrials.gov (NCT05686044)).
# Beyond safety, the trial assessed the changes in two co-primary endpoints: Alzheimer's Disease Assessment Scale-Cognitive Subscale 11 (ADAS-Cog 11) and Alzheimer's Disease Cooperative Study Clinician's Global Impression of Change (ADCS-CGIC), which assess cognition and activities of daily living. The study monitored for safety and collected plasma to measure several biomarkers to assess the disease state, potential disease progression, and treatment effects.
# The treatment response in the current study was not related to a patient's age or sex.
# EOT-End of Treatment *P<0.05; **P<0.01; ***P<0.001.
# When the baseline MMSE scores for patients positive for AD according to their pTau217/tTau >4.2% ratio were subdivided, a dose-dependent relationship to MMSE at baseline was observed. It was concluded that the response to buntanetap treatment is more pronounced in mild AD patients than in those with more advanced AD. The response in the 30 mg dose treatment group R2=0.17 (R^2 or the coefficient of determination), p <0.001, indicates statistical significance of the MMSE score, which was not evident in the placebo group.
# [16] = system: early AD patients and early PD patients; details: cited from earlier work
# tau [17] = details: unpublished observation, Peter Davies Laboratory; cited from earlier work
# [18] = system: traumatic brain injury rats; details: cited from earlier work
# αSYN [19] = details: neuroblastoma cells; cited from earlier work
# [20] = system: dementia with Lewy bodies (DLB) in men; details: cited from earlier work; for risk of DLB lower compared to 5ARIs / risk of DLB lower compared to tamsulosin: terazosin, doxazosin, or alfuzosin pooled
# [21] = clinical studies; cited from earlier work
# [22] = men newly started on terazosin, doxazosin, or alfuzosin (pooled) vs matched men taking tamsulosin
structure (smiles),measurement,setting,value
"CN1CC[C@]2(C)c3cc(OC(=O)Nc4ccccc4)ccc3N(C)C12 (stereo partly drawn) [Buntanetap, (3aR)-1,3a,8-trimethyl-1,2,3,3a,8,8a-hexahydropyrrolo[2,3-b]indol-5-yl phenylcarbamate]",retina,rat acute glaucoma model; acute glaucoma,Preserved the retina
same,nerve cell protection,rat acute glaucoma model; rat acute glaucoma model,protected nerve cells
same,synaptic transmission in hippocampus,[1]; APP/PS1 tg mice,Normalized impaired synaptic transmission
same,memory and learning,[1]; APP/PS1 tg mouse model of AD,Restored memory and learning
same,brain concentration relative to plasma,[2],about 8 times
same,duration of effect in lowering neurotoxic proteins and inflammation after the last dose,[3]; CSF sampling period after the last dose,≥ 12 h
same,"levels of APP, Tau, and αSYN in the cerebrospinal fluid (CSF)","[3]; MCI subjects, 4×60 mg/day",normalized
same,half-life in CSF,[3]; MCI subjects,> 12 h
same,inflammation in human CSF,[3]; MCI subjects,lowered inflammation
same,CSF Aβ42,[3]; five MCI subjects,trend to lower
same,"CSF levels of sAPPα, sAPPβ, t-tau, p-tau, and specific inflammatory markers",[3]; five MCI subjects,significantly lowered
same,APP in relation to Actin standard (Western blot),APP [4],lowers APP in vitro in a dose-dependent manner
same,"APP/Aβ, tau/phosphor-tau and alpha-synuclein in the spinal fluid (FIG. 3)",[5],normalized
same,colonic motility,[6],Restored colonic motility
same,duration of reduction of APP and all related peptides in hippocampus after the last dose,APP and its fragments [7]; APP/PS1 mice,at least 9 hours
same,APP and its fragments in hippocampus,APP and its fragments [7]; APP/PS1 transgenic AD mice,reduced
same,memory and learning,[8],Restored memory and learning
same,αSYN in vivo in the brain and in the gut,αSYN [9],lowers αSYN
same,anterograde and retrograde vesicle transport,[10],Normalized anterograde and retrograde vesicle transport
same,levels of APP in vitro,APP [11],lowers levels of APP
same,tolerability,"[12]; healthy human volunteers, doses up to 4×60 mg daily X 10 days",well tolerated
same,terminal half-life,"[12]; plasma, cleared biphasically",4.3 to 4.7 h
same,tau in vivo,tau [13],lowers tau
same,levels of Huntingtin Protein,Huntingtin Protein,reduced the levels of Huntingtin Protein
same,levels of APP and all its fragments,APP and its fragments [14],lowers levels of APP and all its fragments
same,Non-Responders (Number),[15]; 7.5 mg,5
same,Non-Responders (Percentage),[15]; 7.5 mg,(26.32%)
same,Responders (Number),[15]; 7.5 mg,14
same,Responders (Percentage),[15]; 7.5 mg,(73.68%)**
same,Non-Responders (Number),[15]; 15 mg,7
same,Non-Responders (Percentage),[15]; 15 mg,(28.00%)
same,Responders (Number),[15]; 15 mg,18
same,Responders (Percentage),[15]; 15 mg,(72.00%)**
same,Non-Responders (Number),[15]; 30 mg,3
same,Non-Responders (Percentage),[15]; 30 mg,(12.50%)
same,Responders (Number),[15]; 30 mg,21
same,Responders (Percentage),[15]; 30 mg,(87.50%)***
same,difference in the proportion of participants who improved relative to placebo,[15]; 30 mg group,three-fold difference
same,ADAS-Cog 11 scores relative to placebo,"[15]; patients with mild AD, each treatment dose",significantly higher improvement
same,axonal integrity and synaptic function,[16]; AD and PD cohorts,improving; also recorded: improved
same,inflammatory factors / markers,[16]; AD and PD cohorts,trend in lowering levels; also recorded: reduced
same,neurotoxic protein biomarkers,[16]; AD and PD cohorts,trend in lowering levels; also recorded: reduced
same,safety and tolerability,"[16]; AD and PD patients, doses up to 80 mg",well tolerated; also recorded: safe and promising
same,crossing of the blood brain barrier,[16]; AD and PD patients,crossed the blood brain barrier
same,ADAS-Cog11 and WAIS coding (cognition),"[16]; AD patients, 80 mg QD",statistically significant improvements; also recorded: improved cognition
same,"motor function as measured by MDS-UPDRS (Part II, III, IV and total)","[16]; PD patients, 5-80 mg QD, maximum improvement for 10 & 20 mg",improved at all doses motor function
same,MDS-UPDRS and WAIS coding,[16]; PD patients,statistically significant improvements
same,WAIS speed and accuracy,[16]; PD patients,improved
same,Cmax and AUC,"[16]; plasma, up to 80 mg QD",increased with dose without evidence for a plateau
same,tau in vitro,tau [17],lowers tau
same,inflammation in the rat brain,[18]; after TBI,lowered inflammation
same,nerve cell protection in rat substantia Ingra,[18]; after TBI,protected nerve cells
same,synaptic transmission in rat striatum,[18]; after traumatic brain injury (TBI),Normalized impaired synaptic transmission
same,memory and learning,[18]; traumatic brain injury rats,Preserved memory and learning
same,αSYN in vitro,αSYN [19],lowers αSYN
COc1cc2nc(N(C)CCCNC(=O)C3CCCO3)nc(N)c2cc1OC (stereo not drawn) [alfuzosin],hazard ratio [HR] of developing DLB,[20]; [22],0.60
same,risk of DLB lower compared to 5ARIs,[20],37%
same,risk of DLB lower compared to tamsulosin,[20],40%
same,hazard ratio [HR] of developing DLB,[20]; vs matched men taking 5ARI,0.73
COc1cc2nc(N3CCN(C(=O)C4COc5ccccc5O4)CC3)nc(N)c2cc1OC (stereo not drawn) [doxazosin],hazard ratio [HR] of developing DLB,[20]; [22],0.60
same,risk of DLB lower compared to 5ARIs,[20],37%
same,risk of DLB lower compared to tamsulosin,[20],40%
same,hazard ratio [HR] of developing DLB,[20]; vs matched men taking 5ARI,0.73
"CN1CC[C@@]2(C)c3cc(OC(=O)Nc4ccccc4)ccc3N(C)[C@@H]12 [phenserine, (−)-N-phenylcarbamoyl eseroline]",side effects,[21],high cholinomimetic side effects
CCOc1ccccc1OCCN[C@H](C)Cc1ccc(OC)c(S(N)(=O)=O)c1 [tamsulosin],hazard ratio [HR] of developing DLB,[20]; vs matched men taking 5ARI,1.17
COc1cc2nc(N3CCN(C(=O)C4CCCO4)CC3)nc(N)c2cc1OC (stereo not drawn) [terazosin],hazard ratio [HR] of developing DLB,[20]; [22],0.60
same,risk of DLB lower compared to 5ARIs,[20],37%
same,risk of DLB lower compared to tamsulosin,[20],40%
same,hazard ratio [HR] of developing DLB,[20]; vs matched men taking 5ARI,0.73
